# Results published in patent publication US9611277B2 (Janssen Pharmaceutica NV, priority 2013, dated 2017).
# Legend:
# [1] = target: human orexin 1 receptor (Homo sapiens, UniProt O43613); assay: Human orexin 1 receptor radioligand binding; details: human orexin 1 receptor; averages of 2-20 runs; read-out: hOX1 Ki
# Method in brief: (§1)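 Competition binding with the tritiated thiazolyl-pyrrolidinyl-methanone radioligand in PBS on homogenized rat or human OX1R-expressing cell suspensions, ≤0.1% DMSO; nonspecific binding defined with 10 μM almorexant. Bound radioactivity read by scintillation after filtration; IC50 from one-site competition fit, converted to Ki using pre-determined radioligand Kd.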
# [2] = target: rat orexin 1 receptor (Rattus norvegicus, UniProt P56718); assay: Rat orexin 1 receptor radioligand binding; details: rat orexin 1 receptor; averages of 2-20 runs; read-out: rOX1 Ki
# Method in brief: as §1
# [3] = target: human orexin 2 receptor (Homo sapiens (Human), UniProt O43614); assay: Human orexin 2 receptor radioligand binding; details: human orexin 2 receptor; averages of 2-20 runs; read-out: hOX2 Ki
# Chain of human orexin 2 receptor (O43614 whole entry): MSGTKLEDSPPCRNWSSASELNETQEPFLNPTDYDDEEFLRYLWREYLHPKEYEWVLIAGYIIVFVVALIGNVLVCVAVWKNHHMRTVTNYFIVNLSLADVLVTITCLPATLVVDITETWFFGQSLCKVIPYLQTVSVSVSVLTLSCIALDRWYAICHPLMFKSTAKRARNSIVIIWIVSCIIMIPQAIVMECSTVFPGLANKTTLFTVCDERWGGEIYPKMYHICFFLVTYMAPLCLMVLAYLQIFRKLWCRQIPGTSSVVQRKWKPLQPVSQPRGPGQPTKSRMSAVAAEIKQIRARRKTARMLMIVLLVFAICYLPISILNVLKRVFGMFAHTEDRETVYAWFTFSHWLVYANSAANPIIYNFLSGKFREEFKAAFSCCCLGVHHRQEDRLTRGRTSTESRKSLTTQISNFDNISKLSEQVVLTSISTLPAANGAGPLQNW
# Method in brief: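 HEK293 cells stably expressing human OX2 receptor, homogenized, incubated with [3H]-EMPA and compounds (DMSO ≤0.1%); nonspecific binding with 10 μM almorexant. Filter-bound radioactivity counted by scintillation; IC50 from one-site competition fit of triplicates, Ki from IC50 and predetermined radioligand Kd, averaged over 2-20 runs.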
SMILES,Ki [1] [µM],Ki [2] [µM],Ki [3] [µM]
"O=C(c1ccccc1-n1nccn1)N1C[C@H]2C[C@@H](Oc3ccc(Cl)cn3)[C@@H]1C2 [Example 112, (2-(2H-1,2,3-triazol-2-yl)phenyl)((1S,4R,6R)-6-((5-chloropyridin-2-yl)oxy)-2-azabicyclo[2.2.1]heptan-2-yl)methanone]",0.01,0.008,0.459
"O=C(c1cc(F)ccc1-n1nccn1)N1C[C@H]2C[C@@H](Oc3ccc(Cl)cn3)[C@@H]1C2 [Example 113, ((1S,4R,6R)-6-((5-chloropyridin-2-yl)oxy)-2-azabicyclo[2.2.1]heptan-2-yl)(5-fluoro-2-(2H-1,2,3-triazol-2-yl)phenyl)methanone]",0.014,0.017,0.984
"Cc1ccc(-n2nccn2)c(C(=O)N2C[C@H]3C[C@@H](Oc4ccc(Cl)cn4)[C@@H]2C3)n1 [Example 114, ((1S,4R,6R)-6-((5-chloropyridin-2-yl)oxy)-2-azabicyclo[2.2.1]heptan-2-yl)(6-methyl-3-(2H-1,2,3-triazol-2-yl)pyridin-2-yl)methanone]",0.023,0.011,0.668
"O=C(c1cccc(F)c1-c1ncccn1)N1C[C@H]2C[C@@H](Oc3ccc(Cl)cn3)[C@@H]1C2 [Example 115, ((1S,4R,6R)-6-((5-chloropyridin-2-yl)oxy)-2-azabicyclo[2.2.1]heptan-2-yl)(3-fluoro-2-(pyrimidin-2-yl)phenyl)methanone]",0.008,0.007,0.852
"O=C(c1ccccc1-c1ncc(F)cn1)N1C[C@H]2C[C@@H](Oc3ccc(Cl)cn3)[C@@H]1C2 [Example 116, ((1S,4R,6R)-6-((5-chloropyridin-2-yl)oxy)-2-azabicyclo[2.2.1]heptan-2-yl)(2-(5-fluoropyrimidin-2-yl)phenyl)methanone]",0.012,0.011,0.939
"O=C(c1cccc(F)c1-c1ncc(F)cn1)N1C[C@H]2C[C@@H](Oc3ccc(Cl)cn3)[C@@H]1C2 [Example 117, ((1S,4R,6R)-6-((5-chloropyridin-2-yl)oxy)-2-azabicyclo[2.2.1]heptan-2-yl)(3-fluoro-2-(5-fluoropyrimidin-2-yl)phenyl)methanone]",0.028,0.016,1.6
"O=C(c1ccccc1-n1nccn1)N1C[C@H]2C[C@@H](Oc3ccc(F)cn3)[C@@H]1C2 [Example 118, (2-(2H-1,2,3-triazol-2-yl)phenyl)((1S,4R,6R)-6-((5-fluoropyridin-2-yl)oxy)-2-azabicyclo[2.2.1]heptan-2-yl)methanone]",0.105,0.133,1.6
"O=C(c1cccc(F)c1-c1ncccn1)N1C[C@H]2C[C@@H](Oc3ccc(F)cn3)[C@@H]1C2 [Example 120, (3-fluoro-2-(pyrimidin-2-yl)phenyl)((1S,4R,6R)-6-((5-fluoropyridin-2-yl)oxy)-2-azabicyclo[2.2.1]heptan-2-yl)methanone]",0.111,0.06,4.1
"O=C(c1ccccc1-n1nccn1)N1C[C@H]2C[C@@H](Oc3ccc(C(F)F)cn3)[C@@H]1C2 [Example 121, (2-(2H-1,2,3-triazol-2-yl)phenyl)((1S,4R,6R)-6-((5-(difluoromethyl)pyridin-2-yl)oxy)-2-azabicyclo[2.2.1]heptan-2-yl)methanone]",0.011,0.01,0.05
"Cc1ccc(-n2nccn2)c(C(=O)N2C[C@H]3C[C@@H](Oc4ccc(C(F)F)cn4)[C@@H]2C3)n1 [Example 122, ((1S,4R,6R)-6-((5-(difluoromethyl)pyridin-2-yl)oxy)-2-azabicyclo[2.2.1]heptan-2-yl)(6-methyl-3-(2H-1,2,3-triazol-2-yl)pyridin-2-yl)methanone]",0.03,0.028,0.218
"O=C(c1cccc(F)c1-c1ncccn1)N1C[C@H]2C[C@@H](Oc3ccc(C(F)F)cn3)[C@@H]1C2 [Example 123, ((1S,4R,6R)-6-((5-(difluoromethyl)pyridin-2-yl)oxy)-2-azabicyclo[2.2.1]heptan-2-yl)(3-fluoro-2-(pyrimidin-2-yl)phenyl)methanone]",0.01,0.011,0.149
"O=C(c1cc(F)ccc1-n1nccn1)N1C[C@H]2C[C@@H](Oc3cnc(C(F)(F)F)cn3)[C@@H]1C2 [Example 124, (5-fluoro-2-(2H-1,2,3-triazol-2-yl)phenyl)((1S,4R,6R)-6-((5-(trifluoromethyl)pyrazin-2-yl)oxy)-2-azabicyclo[2.2.1]heptan-2-yl)methanone]",0.109,0.2,4.5
"Cc1ccc(-n2nccn2)c(C(=O)N2C[C@H]3C[C@@H](Oc4cnc(C(F)(F)F)cn4)[C@@H]2C3)n1 [Example 125, (6-methyl-3-(2H-1,2,3-triazol-2-yl)pyridin-2-yl)((1S,4R,6R)-6-((5-(trifluoromethyl)pyrazin-2-yl)oxy)-2-azabicyclo[2.2.1]heptan-2-yl)methanone]",0.088,0.22,5.5
"O=C(c1cccc(F)c1-c1ncccn1)N1C[C@H]2C[C@@H](Oc3cnc(C(F)(F)F)cn3)[C@@H]1C2 [Example 126, (3-fluoro-2-(pyrimidin-2-yl)phenyl)((1S,4R,6R)-6-((5-(trifluoromethyl)pyrazin-2-yl)oxy)-2-azabicyclo[2.2.1]heptan-2-yl)methanone]",0.022,0.027,4.2
"O=C(c1ccc(F)cc1-c1ncccn1)N1C[C@H]2C[C@@H](Oc3cnc(C(F)(F)F)cn3)[C@@H]1C2 [Example 127, (4-fluoro-2-(pyrimidin-2-yl)phenyl)((1S,4R,6R)-6-((5-(trifluoromethyl)pyrazin-2-yl)oxy)-2-azabicyclo[2.2.1]heptan-2-yl)methanone]",0.143,0.116,> 10
"O=C(c1cc(F)ccc1-c1ncccn1)N1C[C@H]2C[C@@H](Oc3cnc(C(F)(F)F)cn3)[C@@H]1C2 [Example 128, (5-fluoro-2-(pyrimidin-2-yl)phenyl)((1S,4R,6R)-6-((5-(trifluoromethyl)pyrazin-2-yl)oxy)-2-azabicyclo[2.2.1]heptan-2-yl)methanone]",0.062,0.069,3.8
"O=C(c1c(F)cccc1-c1ncccn1)N1C[C@H]2C[C@@H](Oc3cnc(C(F)(F)F)cn3)[C@@H]1C2 [Example 129, (2-fluoro-6-(pyrimidin-2-yl)phenyl)((1S,4R,6R)-6-((5-(trifluoromethyl)pyrazin-2-yl)oxy)-2-azabicyclo[2.2.1]heptan-2-yl)methanone]",0.047,0.053,4.4
"O=C(c1ccccc1-c1ncccn1)N1C[C@H]2C[C@@H](Oc3cnc(C(F)(F)F)cn3)[C@@H]1C2 [Example 130, (2-(pyrimidin-2-yl)phenyl)((1S,4R,6R)-6-((5-(trifluoromethyl)pyrazin-2-yl)oxy)-2-azabicyclo[2.2.1]heptan-2-yl)methanone]",0.027,0.029,3.5
"Cc1cnc(O[C@@H]2C[C@H]3C[C@@H]2N(C(=O)c2ccccc2-n2nccn2)C3)nc1 [Example 131, (2-(2H-1,2,3-triazol-2-yl)phenyl)((1S,4R,6R)-6-((5-methylpyrimidin-2-yl)oxy)-2-azabicyclo[2.2.1]heptan-2-yl)methanone]",0.132,0.14,2.2
"Cc1cnc(O[C@@H]2C[C@H]3C[C@@H]2N(C(=O)c2cccc(F)c2-c2ncccn2)C3)nc1 [Example 133, (3-fluoro-2-(pyrimidin-2-yl)phenyl)((1S,4R,6R)-6-((5-methylpyrimidin-2-yl)oxy)-2-azabicyclo[2.2.1]heptan-2-yl)methanone]",0.102,0.06,4.2
"CCc1cnc(O[C@@H]2C[C@H]3C[C@@H]2N(C(=O)c2ccccc2-n2nccn2)C3)nc1 [Example 135, (2-(2H-1,2,3-triazol-2-yl)phenyl)((1S,4R,6R)-6-((5-ethylpyrimidin-2-yl)oxy)-2-azabicyclo[2.2.1]heptan-2-yl)methanone]",0.1,0.061,1.2
"CCc1cnc(O[C@@H]2C[C@H]3C[C@@H]2N(C(=O)c2cccc(F)c2-c2ncccn2)C3)nc1 [Example 137, ((1S,4R,6R)-6-((5-ethylpyrimidin-2-yl)oxy)-2-azabicyclo[2.2.1]heptan-2-yl)(3-fluoro-2-(pyrimidin-2-yl)phenyl)methanone]",0.065,0.039,1.7
"O=C(c1ccccc1-n1nccn1)N1C[C@H]2C[C@@H](Oc3ccc(C(F)(F)F)nn3)[C@@H]1C2 [Example 139, (2-(2H-1,2,3-triazol-2-yl)phenyl)((1S,4R,6R)-6-((6-(trifluoromethyl)pyridazin-3-yl)oxy)-2-azabicyclo[2.2.1]heptan-2-yl)methanone]",0.15,0.208,3.7
"O=C(c1cccc(F)c1-c1ncccn1)N1C[C@H]2C[C@@H](Oc3ccc(C(F)(F)F)nn3)[C@@H]1C2 [Example 141, (3-fluoro-2-(pyrimidin-2-yl)phenyl)((1S,4R,6R)-6-((6-(trifluoromethyl)pyridazin-3-yl)oxy)-2-azabicyclo[2.2.1]heptan-2-yl)methanone]",0.348,0.208,> 10
